Several values for one entry are separate records, joined by “and”; a condition that tells them apart may be missing. Identical values can stand only once.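 Protocol summary: plate cells (96-well), add compound at 5 concentrations, incubate 48 h, interpolate endpoints linearly. GI50: concentration for 50% inhibition of growth. Definition used: TGI = concentration required for complete inhibition of growth.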
What was measured:
Experiment in all cases: DTP human tumour cell line panel, 48 h
BT-549 breast = system: BT-549 breast
HT29 colon = system: HT29 colon
KM12 colon = system: KM12 colon
MDA-MB-435 = system: MDA-MB-435
MOLT-4 leukemia = system: MOLT-4 leukemia
NCI-H522 lung = system: NCI-H522 lung
SNB-19 CNS = system: SNB-19 CNS
SNB-75 CNS = system: SNB-75 CNS
SR leukemia = system: SR leukemia
T-47D breast = system: T-47D breast

| Compound | GI50 (BT-549 breast) | TGI (BT-549 breast) | GI50 (HT29 colon) | TGI (HT29 colon) | GI50 (KM12 colon) | TGI (KM12 colon) | GI50 (MDA-MB-435) | TGI (MDA-MB-435) | GI50 (MOLT-4 leukemia) | TGI (MOLT-4 leukemia) | GI50 (NCI-H522 lung) | GI50 (SNB-19 CNS) | TGI (SNB-19 CNS) | GI50 (SNB-75 CNS) | TGI (SNB-75 CNS) | TGI (SR leukemia) | GI50 (T-47D breast) | TGI (NCI-H522 lung) | GI50 (SR leukemia) | TGI (T-47D breast) |
| --- | --- | --- | --- | --- | --- | --- | --- | --- | --- | --- | --- | --- | --- | --- | --- | --- | --- | --- | --- | --- |
| CC[C@H](C)[C@H](NC(=O)[C@H]1CCCCN1C)C(=O)N(C)[C@H](C[C@@H](OC(C)=O)c1nc(C(=O)NC23C4C5C2C2C3C4C52C(=O)OC)cs1)C(C)C (some centres undefined) | 0.00344 µM and 0.0025 µM | 0.0801 µM and 0.0268 µM | 0.00114 µM and 0.0025 µM | 0.0612 µM and 0.0493 µM | 0.00309 µM and 0.0025 µM | > 25 µM | 0.000349 µM and < 0.0025 µM | 0.00278 µM and < 0.0025 µM | 0.00485 µM and 0.0025 µM | > 25 µM | 0.000331 µM and < 0.0025 µM | 0.00396 µM and 0.0025 µM | > 25 µM | 0.00125 µM and 0.0025 µM | > 25 µM | 5.98 µM | 0.00275 µM | – | – | – |
| CN1CCN(C(=O)[C@@]2(C)CC[C@]3(C)CC[C@]4(C)C(=CC[C@@H]5[C@@]6(C)CC[C@H](OC(=O)c7cccnc7)C(C)(C)[C@@H]6CC[C@]54C)[C@@H]3C2)CC1 | 1.7 µM | 3.49 µM | 1.06 µM | 2.69 µM | 1.9 µM | 3.64 µM | 1.7 µM | 3.19 µM | 1.92 µM | 4.78 µM | 1.95 µM | 1.74 µM | 3.53 µM | 1.32 µM | 2.63 µM | 4.08 µM | 3.12 µM | 4.17 µM | 0.937 µM | 17 µM |
| CC(C)c1ccc(C(O)(C(=O)O)c2ccc(C(C)C)cc2)cc1 | – | > 100 µM | – | > 100 µM | – | > 100 µM | – | > 100 µM | – | > 100 µM | – | – | > 100 µM | – | > 100 µM | > 100 µM | – | > 100 µM | – | > 100 µM |
| Cc1ccc2c(c1)C(=O)/C(=C/c1cccc(OCC(=O)c3ccc(Cl)cc3)c1)CS2 | 12.8 µM | 33.8 µM | 2.81 µM | 7.25 µM | 2.64 µM | 8.02 µM | 2.4 µM | 6.26 µM | 2.69 µM | 8.32 µM | 3.94 µM | 19.5 µM | 77.1 µM | 6.39 µM | 44.9 µM | 4.28 µM | 5.67 µM | 18.2 µM | 1.8 µM | 26.5 µM |
| O=c1oc2ccc(I)cc2c(=O)n1-c1ccc(I)cc1F | 0.403 µM | 2.02 µM | 3.43 µM | 15.3 µM | 2.2 µM | 5.23 µM | 0.586 µM | 5.6 µM | 1.35 µM | 4.94 µM | 0.327 µM | 0.399 µM | > 100 µM | 0.32 µM | 2.57 µM | > 38.2 µM | 0.298 µM | 4.52 µM | 0.61 µM | 3.49 µM |
| O=C(Nc1cccc(-n2ccc3c(NC(=O)c4ccccc4)nccc32)c1)c1ccc(Cl)c(Cl)c1 | 0.214 µM | 1.26 µM | 0.0833 µM | 0.84 µM | 0.0554 µM | 0.942 µM | 0.0275 µM | 0.103 µM | 0.634 µM | – | 0.0786 µM | 0.219 µM | 1.89 µM | 0.147 µM | 1.22 µM | – | 1.32 µM | 1.22 µM | 0.0408 µM | 2.85 µM |
| CCCn1cc(/C=N\N=C2\C(=O)Nc3ccc(C)cc32)c2ccccc21 | 1.79 µM | 6.33 µM | 3.4 µM | > 100 µM | 3.22 µM | 19.7 µM | 1.5 µM | 2.96 µM | 0.682 µM | 4.54 µM | 1.81 µM | 4.24 µM | > 100 µM | 2.31 µM | 46 µM | 8.72 µM | 0.416 µM | 6.59 µM | 0.521 µM | 18.4 µM |
| CN(C)C[C@@H]1CCn2cc(c3ccccc32)C2=C(C(=O)NC2=O)c2cn(c3ccccc23)CCO1 | 1.41 µM | 9.57 µM | 3.32 µM | > 10 µM | 1.82 µM | > 10 µM | 1.46 µM | > 10 µM | 1.95 µM | 5.59 µM | 0.763 µM | 4.49 µM | > 10 µM | 1.4 µM | 5.96 µM | 5.55 µM | 0.828 µM | 7.31 µM | 1.68 µM | > 10 µM |
| COc1ccc(C(=O)/C=C/c2c(C(F)(F)F)nc3ccccn23)cc1OC | 2.34 µM | 43.4 µM | 0.786 µM | – | 0.646 µM | 7.42 µM | 1.15 µM | > 100 µM | 0.711 µM | 3.24 µM | 0.133 µM | 3.77 µM | > 22 µM | 2.01 µM | 6.77 µM | 0.964 µM | 1.78 µM | 0.929 µM | 0.272 µM | 6.21 µM |
| CCc1nc(N)nc(N)c1-c1ccc(N(C)Cc2ccccc2)c([N+](=O)[O-])c1 | – | 18.4 µM | – | 14.6 µM | – | 16.3 µM | – | 17.9 µM | – | 8.11 µM | – | – | 37.3 µM | – | 19.5 µM | 4.16 µM | – | 14.6 µM | – | 21.4 µM |
| CSc1nc(SC)c2c(C)c(Br)[nH]c2n1 | – | > 100 µM | – | > 100 µM | – | > 100 µM | – | > 100 µM | – | > 100 µM | – | – | > 100 µM | – | > 100 µM | > 100 µM | – | > 100 µM | – | > 100 µM |
| CCCCCCCCCCCCSC1=CC(=O)C=CC1=O | 1.34 µM | 4.57 µM | 27.1 µM | > 50 µM | 1.92 µM | 8.37 µM | 15.6 µM | > 50 µM | 0.218 µM | 8.97 µM | 0.191 µM | 1.69 µM | > 28.6 µM | 1.14 µM | 6.38 µM | 29.1 µM | 0.893 µM | 0.763 µM | 3.58 µM | 3.58 µM |
| CCc1c2c(nc3ccc(OC(=O)OCc4ccc(B5OC(C)(C)C(C)(C)O5)cc4)cc13)-c1cc3c(c(=O)n1C2)COC(=O)[C@]3(O)CC | < 0.0291 µM | 1.51 µM | 0.0436 µM | > 100 µM | 0.073 µM | 16.1 µM | 0.0523 µM | 1.53 µM | < 0.01 µM | > 100 µM | 0.0196 µM | < 0.01 µM | > 100 µM | < 0.0117 µM | 0.184 µM | > 100 µM | < 0.01 µM | 14.2 µM | < 0.01 µM | > 100 µM |
| CC(C)c1ccc(C(c2c(O)c3ccccc3oc2=O)c2c(O)c3ccccc3oc2=O)cc1 | – | 39.9 µM | – | 40.2 µM | – | 40.4 µM | – | 39.3 µM | – | 21.9 µM | – | – | 49.9 µM | – | 75.8 µM | 31.1 µM | – | 45.6 µM | – | > 100 µM |
| O=C1c2c(c3c4ccccc4n(CCCCCCN4CCOCC4)c3c3[nH]c4ccccc4c23)C(=O)N1O | 17.9 µM | 46.9 µM | 3.39 µM | 18.1 µM | 7.01 µM | 57.7 µM | 3.72 µM | 20.1 µM | 1.79 µM | 4.63 µM | 1.58 µM | 10.4 µM | > 100 µM | 1.36 µM | 7.57 µM | 1.08 µM | 18.7 µM | 4.15 µM | 0.291 µM | > 94.6 µM |
